Test results reported in patent US11866433B2, “Diarylthiohydantoin compound as androgen receptor antagonist” (CHIA TAI TIANQING PHARMACEUTICAL GROUP CO., LTD., priority 2017, dated 2024).

system: Human prostate cancer LNCaP-FGC cells; assay: In vivo pharmacodynamic study on subcutaneous xenograft tumor model of human prostate cancer LNCaP-FGC cells; parameters: species or system CB-17 SCID mice; settings: 50 mg/kg PO QD, after 21 days of administration, vs solvent control
Protocol: 2.1 Experimental Animals • Species: Mice • Strain: CB-17 SCID mice • Week age and body weight: 6-8 weeks old, 18-22 g body weight • Gender: male • Supplier: Beijing Vital River Laboratory Animal Technology Co., Ltd • Animal Certificate No.: 11400700184227 3. Experimental Method and Steps 3.1 Cell Culture
Human prostate cancer LNCaP-FGC cells (ATCC, Manassas, Virginia) were cultured in vitro monolayers under the culture conditions of RPM11640 medium supplemented with […] fetal bovine serum at 37° C. with 5% CO2. Routine digestion treatment with trypsin-EDTA was performed twice a week for passage. When the cell saturation was 80%-90%, the cells were collected, counted, and inoculated.
0.2 mL (10×10^6) of LNCaP-FGC cells (10×10^6+Matrigel, 1:1) was inoculated subcutaneously to the right back of each CB-17 SCID mouse. When the average tumor volume reached 100-150 mm^3, administration in groups was started.
The tumor diameters were measured with a vernier caliper twice a week. The calculation formula of the tumor volume is: V=0.5a×b^2, wherein a and b represent the long diameter and the short diameter of the tumor, respectively. The antitumor efficacy of the compounds were evaluated by TGI (%) or a relative tumor proliferation rate T/C (%). TGI(%)=[(1−(average tumor volume of a treatment group at the end of drug administration−average tumor volume of the treatment group at the beginning of drug administration))/(average tumor volume of the vehicle control group at the end of treatment−average tumor volume of the vehicle control group at the beginning of treatment)]×100%. The calculation formula of the relative tumor proliferation rate T/C (%) is as follows: T/C %=TRTV/CRTV×100% (TRTV: RTV of a treatment group; CRTV: RTV of a negative control group). The relative tumor volume (RTV) is calculated based on the tumor measurement results, and the calculation formula is RTV=Vt/V0, wherein V0 is the average tumor volume measured at the time of administration in groups (i.e., do), Vt is the average tumor volume at one measurement, and TRTV and CRTV are the data obtained on the same day.
The statistical analysis includes mean and standard error of mean (SEM) of the tumor volume at each time point for each group. […] The comparison between two groups was analyzed by T-test, and the comparison between three or more groups was analyzed by one-way ANOVA. If there was a significant difference in the F value, the Games-Howell method was used for testing. If there was no significant difference in the F value, the Dunnet (2-sided) method was used for analysis. All data analysis was performed by using SPSS 17.0. “p<0.05” was considered a significant difference.

SMILES | TGI [%] | relative tumor proliferation rate T/C [%]
CCc1nc(OCCO)c2cc(N3C(=S)N(c4ccc(C#N)c(C(F)(F)F)c4)C(=O)C3(C)C)ccc2n1 [Compound 27] | 51.0 | 53.1

biological target: T1, androgen receptor (AR) (Homo sapiens, UniProt P10275); assay: Antagonism of compounds on nuclear translocation of androgen receptor (PathHunter NHR cell lines); assay type: cell-based; settings: antagonist mode, agonist 6a-Fluorotestosterone 0.06 μM (EC80)
T1 sequence (P10275 1-920): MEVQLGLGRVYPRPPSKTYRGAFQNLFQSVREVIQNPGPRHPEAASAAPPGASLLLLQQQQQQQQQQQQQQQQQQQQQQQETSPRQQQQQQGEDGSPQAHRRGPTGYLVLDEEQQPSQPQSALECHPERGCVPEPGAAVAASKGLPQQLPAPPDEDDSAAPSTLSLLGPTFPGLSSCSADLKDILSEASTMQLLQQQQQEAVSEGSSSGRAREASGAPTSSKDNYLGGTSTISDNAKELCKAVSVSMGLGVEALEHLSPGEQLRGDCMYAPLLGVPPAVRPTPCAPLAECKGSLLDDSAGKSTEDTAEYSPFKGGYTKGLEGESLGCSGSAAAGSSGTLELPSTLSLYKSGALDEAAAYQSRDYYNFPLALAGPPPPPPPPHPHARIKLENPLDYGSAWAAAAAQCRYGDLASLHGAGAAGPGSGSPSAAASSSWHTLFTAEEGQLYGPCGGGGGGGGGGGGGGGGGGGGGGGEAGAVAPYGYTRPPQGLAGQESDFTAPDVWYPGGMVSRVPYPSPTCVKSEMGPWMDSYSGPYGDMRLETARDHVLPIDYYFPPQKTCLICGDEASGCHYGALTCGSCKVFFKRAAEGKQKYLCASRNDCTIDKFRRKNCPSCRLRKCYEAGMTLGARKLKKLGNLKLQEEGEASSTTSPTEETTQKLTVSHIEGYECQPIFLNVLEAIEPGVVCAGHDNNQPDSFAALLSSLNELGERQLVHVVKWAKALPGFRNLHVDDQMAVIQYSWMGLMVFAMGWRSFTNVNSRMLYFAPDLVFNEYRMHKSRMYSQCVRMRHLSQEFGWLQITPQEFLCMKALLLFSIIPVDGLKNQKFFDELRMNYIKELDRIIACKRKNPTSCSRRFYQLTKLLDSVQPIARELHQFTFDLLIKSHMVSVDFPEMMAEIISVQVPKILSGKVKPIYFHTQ
Protocol: Example 75 Test of Antagonism of Compounds on Nuclear Translocation of Androgen Receptor (AR)
1. PathHunter NHR cell lines were recovered and cultured for amplification.
2. The cells were inoculated onto a 384-well plate prior to testing, and incubated at 37° C. The serum for culture was filtered with charcoal-dextran to reduce the hormone level therein.
3. In the detection of the antagonistic function, a compound was added to the cells and incubated for 60 min. The working concentration of the test compound was diluted from 10 μM at a 3-fold concentration gradient, respectively including: […]. Then, an agonist 6a-Fluorotestosterone 0.06 μM (concentration: EC80, i.e., 80% agonistic compound concentration) was added, and the mixture was incubated at 37° C. or at room temperature for 3-16 h.
4. Signal detection: 12.5 μL or 15 μL (50%, v/v) PathHunter detection mixed solution (kit: DiscoverX product catalog number: 93-0001 series) was added, and incubated at room temperature for 1 h. The chemiluminescent signal was read with a PerkinElmer Envision™ instrument.
5. Data analysis: The compound activity was analyzed with CBIS data analysis software (ChemInnovation, CA). The calculation formula of the inhibition percent of the antagonist is as follows: IC50 inhibition ratio (%)=[…]×(1−(average RLU value of the test compound−average RLU value of the blank control group)/(average RLU value of EC80 control group−average RLU value of the blank control group)).

SMILES | IC50 [µM]
CCc1nc(OCCO)c2cc(N3C(=S)N(c4ccc(C#N)c(C(F)(F)F)c4)C(=O)C3(C)C)ccc2n1 [Compound 27] | 2.21
CCc1nc(-c2cn[nH]c2)c2cc(N3C(=S)N(c4ccc(C#N)c(C(F)(F)F)c4)C(=O)C3(C)C)cc(F)c2n1 [Compound 51] | 0.64
CCc1nc(-c2cc[nH]n2)c2cc(N3C(=S)N(c4ccc(C#N)c(C(F)(F)F)c4)C(=O)C3(C)C)cc(F)c2n1 [Compound 52] | 1.23
CCc1cc(=O)n2cc(N3C(=S)N(c4cnc(C#N)c(C(F)(F)F)c4)C(=O)C3(C)C)cc(F)c2n1 [Compound 53] | 2.11
CCc1cc(=O)n2cc(N3C(=S)N(c4ccc(C#N)c(C(F)(F)F)c4)C(=O)C34CCC4)cc(F)c2n1 [Compound 54] | 2.5
CCOc1cc(=O)n2cc(N3C(=S)N(c4ccc(C#N)c(C(F)(F)F)c4)C(=O)C3(C)C)cc(F)c2n1 [Compound 55] | 1.4
CCc1nc2ccc(-n3c(=S)n(-c4ccc(C#N)c(C(F)(F)F)c4)c4nccc(C)c43)cc2c(=O)[nH]1 [Compound 56] | 2.86
CCc1cc(=O)n2cc(N3C(=S)N(c4ccc(C#N)c(C(F)(F)F)c4)C(=O)C3(C)C)cc(OC)c2n1 [Compound 57] | 5.47
CCc1cc(=O)n2cc(N3C(=S)N(c4ccc(C#N)c(F)c4)C(=O)C3(C)C)cc(F)c2n1 [Compound 59] | 8.92
CCc1cc(=O)n2cc(N3C(=S)N(c4ccc(C#N)c(C(F)(F)F)c4)C(=O)C3(C)C)cc(C)c2n1 [Compound 60] | 1.83
CCc1cc(=O)n2cc(N3C(=S)N(c4ccc(C#N)c(C(F)(F)F)c4)C(=O)C3(C)C)cc(Cl)c2n1 [Compound 61] | 1.45
CC1(C)C(=O)N(c2ccc(C#N)c(C(F)(F)F)c2)C(=S)N1c1cc(F)c2nc(C(F)F)cc(=O)n2c1 [Compound 62] | 1.69
CCc1nc(-c2c[nH]cn2)c2cc(N3C(=S)N(c4ccc(C#N)c(C(F)(F)F)c4)C(=O)C3(C)C)cc(F)c2n1 [Compound 63] | 1.34
CCOc1cc(=O)n2cc(N3C(=S)N(c4cnc(C#N)c(C(F)(F)F)c4)C(=O)C3(C)C)cc(F)c2n1 [Compound 64] | 2.81
COCCOc1cc(=O)n2cc(N3C(=S)N(c4ccc(C#N)c(C(F)(F)F)c4)C(=O)C3(C)C)cc(F)c2n1 [Compound 65] | 2.09
CCc1cc(=O)n2cc(-n3c(=S)n(-c4ccc(C#N)c(C(F)(F)F)c4)c4nccc(C)c43)cc(F)c2n1 [Compound 66] | 7.12
CC1(C)C(=O)N(c2ccc(C#N)c(C(F)(F)F)c2)C(=S)N1c1cc(F)c2nc(OCCO)cc(=O)n2c1 [Compound 67] | 2.3
COc1cc(=O)n2cc(N3C(=S)N(c4ccc(C#N)c(C(F)(F)F)c4)C(=O)C3(C)C)cc(F)c2n1 [Compound 68] | 1.91
COCc1cc(=O)n2cc(N3C(=S)N(c4ccc(C#N)c(C(F)(F)F)c4)C(=O)C3(C)C)cc(F)c2n1 [Compound 69] | 4
CCOc1nc(OCCO)c2cc(N3C(=S)N(c4ccc(C#N)c(C(F)(F)F)c4)C(=O)C3(C)C)cc(F)c2n1 [Compound 70] | 4.27
COc1nc(OCCO)c2cc(N3C(=S)N(c4ccc(C#N)c(C(F)(F)F)c4)C(=O)C3(C)C)cc(F)c2n1 [Compound 71] | 2.76
CCOc1nc(OCCO)c2cc(N3C(=S)N(c4cnc(C#N)c(C(F)(F)F)c4)C(=O)C3(C)C)cc(F)c2n1 [Compound 72] | 2.41
COc1nc(OCCO)c2cc(N3C(=S)N(c4cnc(C#N)c(C(F)(F)F)c4)C(=O)C3(C)C)cc(F)c2n1 [Compound 73] | 2.13
CC1(C)C(=O)N(c2cnc(C#N)c(C(F)(F)F)c2)C(=S)N1c1cc(F)c2nc(C(F)F)cc(=O)n2c1 [Compound 74] | 2.96
CCc1cc(=O)n2cc(N3C(=S)N(c4cnc(C#N)c(Cl)c4)C(=O)C3(C)C)cc(F)c2n1 [Compound 75] | 0.92

system: not listed separately; assay: Tissue distribution test of Compound 27 and Compound 10 (plasma and brain); assay type: in vivo; settings: intragastric 2 mg/kg, 2 h after administration, male CD-1 mice
Protocol: Taking male CD-1 mice as test animals, drug concentrations in plasma and brain after intragastric administration of Compound 27 and Compound 10 to the mice were determined by the LC/MS/MS method, respectively.
2.2 Test Animals: Six healthy adult male CD-1 mice were divided into 2 groups, with 3 mice in each group, according to the principle of similar body weight. The animals were purchased from Shanghai Super-BK Laboratory Animal Co., Ltd., with Animal Production License No.: SCXK (Shanghai) 2013-0016.
An appropriate amount of sample was weighed, and an appropriate amount of DMSO, PEG400 and water were added successively at a volume ratio of 10:40:50. After stirring and ultrasonic processing, the resulting mixture reached a clear solution state of 0.4 mg/mL.
Six male CD-1 mice were divided into 2 groups, fasted overnight, and intragastrically administered at an administration volume of 5 mL/kg in a dose of 2 mg/kg.
After Compound 27 and Compound 10 were intragastrically administered to the male CD-1 mice, 100 μL of blood was collected by cardiac puncture at 2 h, placed in a test tube containing 2 μl of EDTA-K2, and centrifuged at 3000 g for 15 min to separate 50 μL of plasma, which was stored at −60° C. Meanwhile, brain tissues were collected, washed, then homogenized with 5-fold 15 mM PBS/MeOH (v:v, 2:1), and stored at −60° C. The animals were allowed to eat 2 hours after administration.
After intragastric administration to the mice, the content of the test compound in plasma and brain was determined by the LC/MS/MS method. The linear range of the method was 2.00-6000 nmol/L; and the plasma samples were analyzed after the treatment with acetonitrile precipitated protein.

SMILES | Concentration in Brain [nmol/kg]
CCc1nc(OCCO)c2cc(N3C(=S)N(c4ccc(C#N)c(C(F)(F)F)c4)C(=O)C3(C)C)ccc2n1 [Compound 27] | 85.2 ± 21.9

same assay, conditions: mouse, brain / plasma, oral; intragastric 2 mg/kg, 2 h after administration, male CD-1 mice; read-out: Brain to Blood Ratio

SMILES | Kp at 2 h
CCc1nc(OCCO)c2cc(N3C(=S)N(c4ccc(C#N)c(C(F)(F)F)c4)C(=O)C3(C)C)ccc2n1 [Compound 27] | 0.00917 ± 0.0004

same assay, conditions: mouse, plasma, oral; intragastric 2 mg/kg, 2 h after administration, male CD-1 mice

SMILES | concentration at 2 h [µM]
CCc1nc(OCCO)c2cc(N3C(=S)N(c4ccc(C#N)c(C(F)(F)F)c4)C(=O)C3(C)C)ccc2n1 [Compound 27] | 9.25 ± 2.11
